# Data as given in patent US20220411362A1, “DITERPENOID COMPOUNDS THAT ACT ON PROTEIN KINASE C (PKC)” (K-Gen, Inc., priority 2019, published 2022).
# pKi: −log10 of the molar value. Like-named read-outs stand apart in the source and are kept apart here.
# Experiments:
# [1] = target: T1, C1b domain of human PKCδ (Homo sapiens, UniProt Q05655); experiment: Competitive 3H-PDBu binding to C1b domain of PKCδ; details: 3H-PDBu competition
# T1 construct: Genes encoding C1b domains of human PKCα, δ, ε, θ, and PKD1 (PKCμ) were synthesized; made in house; host or cells: E. coli BL21(DE3)
# T1 sequence (Q05655 230-280 limits assumed): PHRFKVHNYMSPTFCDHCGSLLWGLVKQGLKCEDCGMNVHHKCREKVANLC
# Method: (§1) Compounds described in this disclosure were tested for binding affinity to C1b domain of PKC isoforms. Compound binding affinity to C1b domain of PKC isoforms was derived from competitive binding assay using radioactive tracer ^3H-PDBu and recombinant GST-C1b or full-length of human PKC proteins based on modified procedures from Methods in Molecular Biology, vol.
# (§2) Genes encoding C1b domains of human PKCα, δ, ε, θ, and PKD1 (PKCμ) were synthesized and inserted into pGEX-2TK or pGEX-4T1 vectors for expression and production of GST-C1b proteins in E. coli BL21(DE3) via IPTG induction. The target proteins were purified by glutathione sepharose 4B and followed by ion exchange chromatography if needed to achieve purity >70%. Aliquots of the purified proteins were stored at −80 degree for binding assay (storage buffer: 20 mM Tris pH 8.0, 200 mM NaCl, 10% glycerol, 1 mM DTT).
# (§3) The plate was incubated at 37° C. on a shaker at 300 rpm for 10 minutes and then put on ice for 20 minutes. […] The bottom of the filter plate was sealed and 50 μL of MicroScint-20 (PerkinElmer) cocktail was added to each well. ^3H-PDBu trapped in each well was counted using PerkinElmer MicroBeta2 Reader. Data were analyzed using GraphPad Prism5 with the model “log(inhibitor) vs. response-variable slope” to fit the IC50, and then IC50 was transformed to Ki using Cheng-Prusoff equation: Ki=IC50/(1+added radio ligand/Kd). Kd is the binding affinity of each protein preparation to ^3H-PDBu, determined experimentally.
# [2] = system: HL-60 (Leukemia) cell line; experiment: Proliferation of HL-60; type: cell-based
# Method: (§4) The diterpenoid compounds were tested in A549, a non-small cell lung cancer cell line harboring a K-Ras activating mutation. Briefly, A549 cells at a density of 1,000 cells/well were seeded in 96-well plates and incubated at 37° C. for 24 hours. A series of different concentrations of compound stocks (500×) were prepared by 3-fold serial dilution in DMSO. These compounds were further diluted in culture media and then added to cells so that the final DMSO concentration was not exceeding 0.25%. After 96 hours of incubation, 50 μL of CellTiter Glo reagent (Promega) was added to each well and luminescence was measured after 10 minutes using EnVision (PerkinElmer). Luminescence from cells treated with DMSO alone was set as Max and % of inhibition was calculated as follows: Inhibition %=(Max−Sample value)/Max×100. Data was analyzed using XL-fit software (ID Business Solutions Ltd.) and IC50, relative IC50, and % of top inhibition was calculated. Some of the compounds in this disclosure were very potent in blocking proliferation of A549 lung cancer cells at low nM range. In addition, potency of inhibiting A549 proliferation correlated well with its binding affinity to PKCs for this series of compounds. In other words, higher affinity binders had stronger inhibitory effects on A549 proliferation. This further support the notion that activation, rather than inhibition, of certain PKC isoforms is required to block proliferation of cancer cells, some of which may harbor K-Ras mutations. This is in sharp contrast to previous literature and common belief that inhibition of PKC is necessary to block cancer cell growth (Kang, 2014, New Journal of Science, 2014:1-36). Data presented here is in agreement with recent findings that many loss-of-function but not gain-of-function mutations of PKC isoforms have been identified in many human cancers (Antal et al., 2015, Cell, 160:489-502).
# (§5) The compounds in this disclosure were tested for their potency in blocking proliferation of a few other cancer cells lines, including K-Ras mutant pancreatic cell lines Panc2.13 and KP-4, leukemia cell line HL-60, and lymphoma cell lines Namalwa and Mino. Similar procedures as in Example 67 were followed. Initial cell numbers seeded in 96-well plates were different for different cell lines: 3000 cells/well for Panc2.13; 800-1000 cells/well for KP-4; 5000 cells/well for HL-60; 5000-10000 cells/well for Namalwa and Mino. A ratio ratio of (IC50 of K01)/(IC50 of compound) (data in parenthesis in Table 5) was used to normalize the compound potency from different assay batches to a common comparator […].
# [3] = target: T2, C1b domain of human PKCε (Homo sapiens, UniProt Q02156); experiment: Competitive 3H-PDBu binding to C1b domain of PKCε
# T2 construct: Genes encoding C1b domains of human PKCα, δ, ε, θ, and PKD1 (PKCμ) were synthesized; made in house; host or cells: E. coli BL21(DE3)
# T2 sequence (Q02156 242-292 limits assumed): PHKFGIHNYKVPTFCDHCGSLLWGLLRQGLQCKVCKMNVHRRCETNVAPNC
# Method: as §1, §2, §3
# [4] = target: T3, C1b domain of human PKD1 (PKCμ) (Homo sapiens, UniProt Q15139); experiment: biochemical; type: binding
# T3 construct: Genes encoding C1b domains of human PKCα, δ, ε, θ, and PKD1 (PKCμ) were synthesized; made in house; host or cells: E. coli BL21(DE3)
# T3 sequence (Q15139 270-320 limits assumed): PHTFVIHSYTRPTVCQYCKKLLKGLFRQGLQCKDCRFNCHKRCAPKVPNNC
# Method: as §1, §2, §3
# [5] = system: A549 non-small cell lung cancer cell line; experiment: Proliferation of A549 (CellTiter Glo); type: cell-based; details: Homo sapiens, read-out: IC50 μM (A549 Cell Line)
# Method: as §4
# [6] = system: Namalwa (Lymphoma) cell line; experiment: Proliferation of Namalwa; type: cell-based; details: for ratio of (IC50 of K01)/(IC50 of compound), Namalwa: value in parenthesis; for IC50: read-out: IC50 in μM Namalwa (Lymphoma)
# Method: as §4, §5
# [7] = target: T4, C1b domain of human PKCα (Homo sapiens, UniProt P17252); experiment: biochemical; type: binding; details: 3H-PDBu competition
# T4 construct: Genes encoding C1b domains of human PKCα, δ, ε, θ, and PKD1 (PKCμ) were synthesized; made in house; host or cells: E. coli BL21(DE3)
# Method: as §1, §2
# The plate was incubated at 37° C. on a shaker at 300 rpm for 10 minutes and then put on ice for 20 minutes. […] The bottom of the filter plate was sealed and 50 μL of MicroScint-20 (PerkinElmer) cocktail was added to each well. ^3H-PDBu trapped in each well was counted using PerkinElmer MicroBeta2 Reader. […] Kd is the binding affinity of each protein preparation to ^3H-PDBu, determined experimentally.
# [8] = system: Mino (Lymphoma) cell line; experiment: Proliferation of Mino; type: cell-based
# Method: as §4, §5
# [9] = target: T5, C1b domain of human PKCθ (Homo sapiens, UniProt Q04759); experiment: Competitive 3H-PDBu binding to C1b domain of PKCθ
# T5 construct: Genes encoding C1b domains of human PKCα, δ, ε, θ, and PKD1 (PKCμ) were synthesized; made in house; host or cells: E. coli BL21(DE3)
# T5 sequence (Q04759 231-281 limits assumed): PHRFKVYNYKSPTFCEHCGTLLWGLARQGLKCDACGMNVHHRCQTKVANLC
# Method: as §1, §2, §3
# [10] = system: Panc2.13 (Pancreatic) cell line; experiment: Proliferation of Panc2.13; type: cell-based
# Method: as §4, §5
# [11] = system: KP-4 (Pancreatic) cell line; experiment: Proliferation of KP-4; type: cell-based; details: Homo sapiens, KP-4, read-out: IC50 in μM KP-4 (Pancreatic)
# Method: as §4, §5
# [12] = Homo sapiens, HL-60, read-out: IC50 in μM HL-60 (Leukemia)
# [13] = Homo sapiens, MINO, read-out: IC50 in μM Mino (Lymphoma)
SMILES,pKi ([1]; Ki PKCδ),"ratio of (IC50 of K01)/(IC50 of compound), HL-60 ([2]; HL-60; value in parenthesis)","IC50 [2, 12] [µM]",pKi [3],pKi [4],"IC50 ([5]; A549, 96 h) [µM]","ratio of (IC50 of K01)/(IC50 of compound), Namalwa [6]",IC50 [6] [µM],pKi ([7]; Ki PKCα),"IC50 [8, 13] [µM]","ratio of (IC50 of K01)/(IC50 of compound), Mino ([8]; Mino; value in parenthesis)",pKi [9],other results
CC1=C[C@H]2[C@@]3(O)[C@H](C)C[C@]4(OC(=O)CCC5CCCC5)[C@H]([C@@H]3C=C(CO)C[C@]2(O)C1=O)C4(C)C [Compound K101-C1301],8.00 to 8.30,9.23,0.03 to 0.06,8.00 to 8.30,> 8.30,0.03 to 0.06,1.73,0.03 to 0.06,6.70 to 7.00,0.001 to 0.01,11,7.52 to 9.00,
CC1=C[C@H]2[C@@]3(O)[C@H](C)C[C@]4(OC(=O)CCc5ccc(C(F)(F)F)cc5)[C@H]([C@@H]3C=C(CO)C[C@]2(O)C1=O)C4(C)C [Compound K101-C1302],> 8.30,72,0.001 to 0.01,> 8.30,> 8.30,0.01 to 0.03,13.8,0.001 to 0.01,7.22 to 7.52,< 0.001,75,> 8.30,
CC1=C[C@H]2[C@@]3(O)[C@H](C)C[C@]4(OC(=O)Cc5ccccc5)[C@H]([C@@H]3C=C(CO)C[C@]2(O)C1=O)C4(C)C [Compound K101-C1304],,18,,,,,3.29,0.01 to 0.03,,,15.6,,"pKi ([1]; read-out: Ki PKCδ): 8.00 to 8.30; IC50 ([2]; Homo sapiens, HL-60; read-out: IC50 in μM HL-60 (Leukemia)): 0.01 to 0.03 µM; pKi ([3]; C1b domain of human PKCε, 3H-PDBu competition, read-out: Ki PKCε): 7.52 to 9.00; pKi ([4]; C1b domain of human PKD1 (PKCμ), 3H-PDBu competition, read-out: Ki PKD1/PKCμ): > 8.30; IC50 ([5]; A549, 96 hours incubation, CellTiter Glo): 0.03 to 0.06 µM; pKi ([7]; read-out: Ki PKCα): 6.70 to 7.00; IC50 ([8]; Homo sapiens, MINO; read-out: IC50 in μM Mino (Lymphoma)): 0.001 to 0.01 µM; pKi ([9]; C1b domain of human PKCθ, 3H-PDBu competition, read-out: Ki PKCθ): 8.00 to 8.30"
CC1=C[C@H]2[C@@]3(O)[C@H](C)C[C@]4(OC(=O)[C@@H](N)CCc5ccccc5)[C@H]([C@@H]3C=C(CO)C[C@]2(O)C1=O)C4(C)C [Compound K101-C1318],8.00 to 8.30,3.21,0.1 to 0.2,7.22 to 7.52,> 8.30,0.1 to 0.2,0.93,0.06 to 0.1,6.70 to 7.00,0.01 to 0.03,3.18,7.52 to 9.00,"ratio of (IC50 of K01)/(IC50 of compound), Panc2.13 ([10]; Panc2.13, value in parenthesis): 4.28; IC50 ([10]; read-out: IC50 in μM Panc2.13 (Pancreatic)): 0.2 to 0.6 µM; IC50 [11]: 0.1 to 0.2 µM"
CC1=C[C@H]2[C@@]3(O)[C@H](C)C[C@]4(OC(=O)CCCc5ccccc5)[C@H]([C@@H]3C=C(CO)C[C@]2(O)C1=O)C4(C)C [Compound K101-C1324],> 8.30,32.7,0.01 to 0.03,> 8.30,> 8.30,0.01 to 0.03,8.63,0.001 to 0.01,6.70 to 7.00,0.001 to 0.01,37.5,> 8.30,
